Measurements reported in ChEMBL document CHEMBL5463729, “Data for DCP probe BAY 1753011” (2023).

Columns and labels:
[1] = target: Mitogen-activated protein kinase kinase kinase 21 (Homo sapiens) (UniProt Q5TCX8); assay: Inhibition of MLK4(h) at 10.0 µM in the Eurofins Kinase panel; details: Compound concentration 10.0 uM
[2] = target: Tyrosine-protein kinase Tec (Homo sapiens) (UniProt P42680); assay: Inhibition of Tec(h) activated at 10.0 µM in the Eurofins Kinase panel; details: Compound concentration 10.0 uM
[3] = target: Mitogen-activated protein kinase kinase kinase 3 (Homo sapiens) (UniProt Q99759); assay: Inhibition of MEKK3(h) at 10.0 µM in the Eurofins Kinase panel; details: Compound concentration 10.0 uM
[4] = target: Type-2 angiotensin II receptor (Homo sapiens) (UniProt P50052); details: Compound concentration 10.0 uM
[5] = target: Serine/threonine-protein kinase pim-3 (Homo sapiens) (UniProt Q86V86); assay: Inhibition of Pim-3(h) at 10.0 µM in the Eurofins Kinase panel; details: Compound concentration 10.0 uM
[6] = target: Death-associated protein kinase 3 (Homo sapiens) (UniProt O43293); assay: Inhibition of ZIPK(h) at 10.0 µM in the Eurofins Kinase panel; details: Compound concentration 10.0 uM
[7] = target: Serine/threonine-protein kinase MRCK gamma (Homo sapiens) (UniProt Q6DT37); assay: Inhibition of MRCKgamma(h) at 10.0 µM in the Eurofins Kinase panel; details: Compound concentration 10.0 uM
[8] = target: 5-hydroxytryptamine receptor 2A (Homo sapiens) (UniProt P28223); details: Compound concentration 10.0 uM
5-hydroxytryptamine receptor 2A (Homo sapiens), sequence (P28223 whole entry): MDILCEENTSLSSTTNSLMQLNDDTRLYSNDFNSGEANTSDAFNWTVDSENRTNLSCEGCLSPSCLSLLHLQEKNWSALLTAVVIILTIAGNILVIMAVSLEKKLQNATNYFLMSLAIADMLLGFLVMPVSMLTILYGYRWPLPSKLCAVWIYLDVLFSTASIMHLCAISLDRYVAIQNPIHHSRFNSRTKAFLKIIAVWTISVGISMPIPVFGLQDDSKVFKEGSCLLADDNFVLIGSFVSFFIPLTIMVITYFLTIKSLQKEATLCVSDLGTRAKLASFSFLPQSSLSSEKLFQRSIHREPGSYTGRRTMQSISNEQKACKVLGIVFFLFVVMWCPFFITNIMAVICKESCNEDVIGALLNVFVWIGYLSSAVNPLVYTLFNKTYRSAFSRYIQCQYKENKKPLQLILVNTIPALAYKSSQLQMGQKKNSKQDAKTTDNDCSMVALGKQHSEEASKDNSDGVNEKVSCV

[9] = target: MAP kinase-activated protein kinase 3 (Homo sapiens) (UniProt Q16644); assay: Inhibition of MAPKAP-K3(h) at 10.0 µM in the Eurofins Kinase panel; details: Compound concentration 10.0 uM
MAP kinase-activated protein kinase 3 (Homo sapiens), sequence (Q16644 whole entry, looked up): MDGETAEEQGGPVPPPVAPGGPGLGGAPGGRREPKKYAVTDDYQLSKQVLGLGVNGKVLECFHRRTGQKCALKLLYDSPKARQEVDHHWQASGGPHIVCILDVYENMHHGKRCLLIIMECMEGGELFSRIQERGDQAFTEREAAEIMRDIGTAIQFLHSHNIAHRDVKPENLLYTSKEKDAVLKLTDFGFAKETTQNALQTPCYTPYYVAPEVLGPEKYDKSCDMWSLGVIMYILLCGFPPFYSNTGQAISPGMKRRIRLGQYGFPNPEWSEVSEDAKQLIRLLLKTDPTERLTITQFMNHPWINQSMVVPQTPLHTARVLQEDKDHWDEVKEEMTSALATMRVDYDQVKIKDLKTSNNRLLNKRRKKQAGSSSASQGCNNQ

[10] = target: Phosphatidylinositol 4-phosphate 5-kinase type-1 alpha (Homo sapiens) (UniProt Q99755); assay: Inhibition of PIP5K1a(h) at 10.0 µM in the Eurofins Kinase panel; details: Compound concentration 10.0 uM
[11] = target: Mitogen-activated protein kinase 13 (Homo sapiens) (UniProt O15264); assay: Inhibition of SAPK4(h) at 10.0 µM in the Eurofins Kinase panel; details: Compound concentration 10.0 uM
[12] = target: Testis-specific serine/threonine-protein kinase 3 (Homo sapiens) (UniProt Q96PN8); assay: Inhibition of TSSK3(h) at 10.0 µM in the Eurofins Kinase panel; details: Compound concentration 10.0 uM
Testis-specific serine/threonine-protein kinase 3 (Homo sapiens), sequence (Q96PN8 whole entry): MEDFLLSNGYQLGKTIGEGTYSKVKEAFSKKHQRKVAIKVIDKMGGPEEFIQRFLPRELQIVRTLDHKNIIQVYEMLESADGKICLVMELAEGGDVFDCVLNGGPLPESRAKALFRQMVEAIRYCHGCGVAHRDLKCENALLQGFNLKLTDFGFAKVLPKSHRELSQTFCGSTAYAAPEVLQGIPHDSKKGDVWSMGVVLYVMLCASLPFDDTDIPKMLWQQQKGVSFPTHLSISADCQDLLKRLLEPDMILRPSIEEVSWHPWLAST

[13] = target: Tyrosine-protein kinase ABL2 (Homo sapiens) (UniProt P42684); assay: Inhibition of Arg(h) at 10.0 µM in the Eurofins Kinase panel; details: Compound concentration 10.0 uM
[14] = target: Cyclin-G-associated kinase (Homo sapiens) (UniProt O14976); assay: Inhibition of GAK(h) at 10.0 µM in the Eurofins Kinase panel; details: Compound concentration 10.0 uM
[15] = target: GABA-A receptor; anion channel (Rattus norvegicus) (UniProt O09028+P15431+P18506+P18508+P19969+P20236+P23574+P23576+P28471+P28473+P30191+P62813+P63079+P63138+Q91ZM7+Q9ES14); details: Compound concentration 10.0 uM
[16] = target: Dual specificity mitogen-activated protein kinase kinase 2 (Homo sapiens) (UniProt P36507); assay: Inhibition of MEK2(h) at 10.0 µM in the Eurofins Kinase panel; details: Compound concentration 10.0 uM
[17] = target: MAP/microtubule affinity-regulating kinase 4 (Homo sapiens) (UniProt Q96L34); assay: Inhibition of MARK4(h) at 10.0 µM in the Eurofins Kinase panel; details: Compound concentration 10.0 uM
[18] = target: Serine/threonine-protein kinase MRCK beta (Homo sapiens) (UniProt Q9Y5S2); assay: Inhibition of MRCKbeta(h) at 10.0 µM in the Eurofins Kinase panel; details: Compound concentration 10.0 uM
[19] = target: Serine/threonine-protein kinase ULK2 (Homo sapiens) (UniProt Q8IYT8); assay: Inhibition of ULK2(h) at 10.0 µM in the Eurofins Kinase panel; details: Compound concentration 10.0 uM
Serine/threonine-protein kinase ULK2 (Homo sapiens), sequence (Q8IYT8 whole entry): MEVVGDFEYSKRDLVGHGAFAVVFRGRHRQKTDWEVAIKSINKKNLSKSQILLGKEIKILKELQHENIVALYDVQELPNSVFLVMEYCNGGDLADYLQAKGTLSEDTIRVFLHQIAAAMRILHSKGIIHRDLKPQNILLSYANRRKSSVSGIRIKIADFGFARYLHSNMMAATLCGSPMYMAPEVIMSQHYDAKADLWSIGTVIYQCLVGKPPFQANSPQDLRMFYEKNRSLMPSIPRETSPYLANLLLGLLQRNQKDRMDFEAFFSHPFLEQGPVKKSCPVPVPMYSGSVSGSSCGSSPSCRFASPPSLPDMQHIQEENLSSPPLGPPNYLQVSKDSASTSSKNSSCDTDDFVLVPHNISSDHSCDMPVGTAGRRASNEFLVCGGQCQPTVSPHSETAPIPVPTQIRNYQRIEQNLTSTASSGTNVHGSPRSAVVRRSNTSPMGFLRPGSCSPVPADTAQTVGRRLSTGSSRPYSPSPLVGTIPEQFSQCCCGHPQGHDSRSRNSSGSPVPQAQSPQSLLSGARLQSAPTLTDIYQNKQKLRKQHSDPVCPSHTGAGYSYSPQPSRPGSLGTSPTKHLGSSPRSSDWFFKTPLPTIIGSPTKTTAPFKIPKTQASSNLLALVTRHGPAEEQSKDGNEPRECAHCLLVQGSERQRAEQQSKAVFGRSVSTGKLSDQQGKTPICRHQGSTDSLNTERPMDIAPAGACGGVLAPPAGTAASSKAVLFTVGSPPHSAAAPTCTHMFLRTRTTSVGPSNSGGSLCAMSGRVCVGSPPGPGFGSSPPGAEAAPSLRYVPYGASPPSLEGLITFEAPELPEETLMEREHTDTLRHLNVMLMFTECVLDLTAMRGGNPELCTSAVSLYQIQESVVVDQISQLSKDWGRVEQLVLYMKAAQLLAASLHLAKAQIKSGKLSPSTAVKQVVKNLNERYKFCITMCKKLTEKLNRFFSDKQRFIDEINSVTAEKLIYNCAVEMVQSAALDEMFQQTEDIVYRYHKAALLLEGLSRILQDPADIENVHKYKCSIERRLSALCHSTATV

[20] = target: Serine/threonine-protein kinase MRCK alpha (Homo sapiens) (UniProt Q5VT25); assay: Inhibition of MRCKalpha(h) at 10.0 µM in the Eurofins Kinase panel; details: Compound concentration 10.0 uM
[21] = target: Calcium/calmodulin-dependent protein kinase type II subunit beta (Homo sapiens) (UniProt Q13554); assay: Inhibition of CaMKIIbeta(h) at 10.0 µM in the Eurofins Kinase panel; details: Compound concentration 10.0 uM
[22] = target: Death-associated protein kinase 1 (Homo sapiens) (UniProt P53355); assay: Inhibition of DAPK1(h) at 10.0 µM in the Eurofins Kinase panel; details: Compound concentration 10.0 uM
[23] = target: NUAK family SNF1-like kinase 1 (Homo sapiens) (UniProt O60285); assay: Inhibition of ARK5(h) at 10.0 µM in the Eurofins Kinase panel; details: Compound concentration 10.0 uM
[24] = target: Ephrin type-A receptor 2 (Homo sapiens) (UniProt P29317); assay: Inhibition of EphA2(h) at 10.0 µM in the Eurofins Kinase panel; details: Compound concentration 10.0 uM
[25] = target: Serine/threonine-protein kinase PAK 2 (Homo sapiens) (UniProt Q13177); assay: Inhibition of PAK2(h) at 10.0 µM in the Eurofins Kinase panel; details: Compound concentration 10.0 uM
[26] = target: Serine/threonine-protein kinase DCLK2 (Homo sapiens) (UniProt Q8N568); assay: Inhibition of DCAMKL2(h) at 10.0 µM in the Eurofins Kinase panel; details: Compound concentration 10.0 uM
[27] = target: Interleukin-1 receptor-associated kinase 4 (Homo sapiens) (UniProt Q9NWZ3); assay: Inhibition of IRAK4(h) at 10.0 µM in the Eurofins Kinase panel; details: Compound concentration 10.0 uM
[28] = target: PI3K p110 beta/p85 alpha (Homo sapiens) (UniProt P27986+P42338); assay: Inhibition of PI3 Kinase (p110b/p85a)(h) at 10.0 µM in the Eurofins Kinase panel; format: protein-complex assay; details: Compound concentration 10.0 uM
[29] = target: B2 bradykinin receptor (Homo sapiens) (UniProt P30411); details: Compound concentration 10.0 uM
[30] = target: Dual specificity tyrosine-phosphorylation-regulated kinase 2 (Homo sapiens) (UniProt Q92630); assay: Inhibition of DYRK2(h) at 10.0 µM in the Eurofins Kinase panel; details: Compound concentration 10.0 uM
[31] = target: Receptor-type tyrosine-protein kinase FLT3 (Homo sapiens) (UniProt P36888); assay: Inhibition of Flt3(h) at 10.0 µM in the Eurofins Kinase panel; details: Compound concentration 10.0 uM
Receptor-type tyrosine-protein kinase FLT3 (Homo sapiens), sequence (P36888 whole entry): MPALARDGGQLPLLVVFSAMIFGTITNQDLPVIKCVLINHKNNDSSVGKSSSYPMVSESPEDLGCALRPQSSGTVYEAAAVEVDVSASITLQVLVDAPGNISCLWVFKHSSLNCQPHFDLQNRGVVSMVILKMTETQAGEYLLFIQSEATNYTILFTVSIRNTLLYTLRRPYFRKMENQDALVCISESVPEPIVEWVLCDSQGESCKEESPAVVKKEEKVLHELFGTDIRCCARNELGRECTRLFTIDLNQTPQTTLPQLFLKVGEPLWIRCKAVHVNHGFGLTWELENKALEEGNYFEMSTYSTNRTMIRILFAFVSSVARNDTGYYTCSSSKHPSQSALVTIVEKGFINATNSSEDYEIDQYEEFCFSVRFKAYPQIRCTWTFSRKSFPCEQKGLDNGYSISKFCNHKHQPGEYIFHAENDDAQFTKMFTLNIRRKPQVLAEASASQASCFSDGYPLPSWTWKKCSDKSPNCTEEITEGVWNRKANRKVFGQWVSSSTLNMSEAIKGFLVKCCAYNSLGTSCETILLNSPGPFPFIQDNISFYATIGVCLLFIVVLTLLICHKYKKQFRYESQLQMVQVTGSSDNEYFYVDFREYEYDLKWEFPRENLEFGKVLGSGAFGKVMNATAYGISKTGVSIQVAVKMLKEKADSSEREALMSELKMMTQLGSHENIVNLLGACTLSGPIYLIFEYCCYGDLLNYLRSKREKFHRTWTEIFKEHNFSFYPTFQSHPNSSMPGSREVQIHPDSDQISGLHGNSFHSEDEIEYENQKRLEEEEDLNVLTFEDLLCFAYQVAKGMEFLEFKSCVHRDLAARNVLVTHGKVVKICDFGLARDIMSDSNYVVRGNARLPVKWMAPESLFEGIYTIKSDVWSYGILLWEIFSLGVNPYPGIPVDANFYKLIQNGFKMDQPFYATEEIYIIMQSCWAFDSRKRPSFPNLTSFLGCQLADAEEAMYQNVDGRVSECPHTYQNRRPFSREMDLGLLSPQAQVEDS

[32] = target: Cyclin-dependent kinase 1/cyclin B1 (Homo sapiens) (UniProt P06493+P14635); assay: Inhibition of CDK1/cyclinB(h) at 10.0 µM in the Eurofins Kinase panel; format: protein-complex assay; details: Compound concentration 10.0 uM
Cyclin-dependent kinase 1/cyclin B1 (Homo sapiens), sequence (P06493 whole entry, looked up): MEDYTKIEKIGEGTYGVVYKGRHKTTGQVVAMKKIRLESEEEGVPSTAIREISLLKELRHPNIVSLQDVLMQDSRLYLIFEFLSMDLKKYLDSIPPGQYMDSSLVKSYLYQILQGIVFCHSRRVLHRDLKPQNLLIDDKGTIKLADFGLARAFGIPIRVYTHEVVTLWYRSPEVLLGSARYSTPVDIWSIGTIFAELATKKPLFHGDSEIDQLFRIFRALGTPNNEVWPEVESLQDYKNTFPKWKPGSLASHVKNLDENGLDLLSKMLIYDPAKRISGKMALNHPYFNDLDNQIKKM
Cyclin-dependent kinase 1/cyclin B1 (Homo sapiens), sequence (P14635 whole entry, looked up): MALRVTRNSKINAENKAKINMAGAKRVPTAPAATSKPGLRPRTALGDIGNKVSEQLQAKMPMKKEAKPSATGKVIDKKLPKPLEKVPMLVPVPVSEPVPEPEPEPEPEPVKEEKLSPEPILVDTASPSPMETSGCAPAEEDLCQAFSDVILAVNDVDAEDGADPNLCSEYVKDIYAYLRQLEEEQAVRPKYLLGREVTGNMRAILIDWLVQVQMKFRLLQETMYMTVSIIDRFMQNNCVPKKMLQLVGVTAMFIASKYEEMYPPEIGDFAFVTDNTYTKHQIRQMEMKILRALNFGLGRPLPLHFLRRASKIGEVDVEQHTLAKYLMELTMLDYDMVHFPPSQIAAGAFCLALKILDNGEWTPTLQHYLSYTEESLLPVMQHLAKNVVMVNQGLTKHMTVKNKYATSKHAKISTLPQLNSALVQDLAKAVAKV

Vasopressin V1a receptor = Vasopressin V1a receptor (Homo sapiens, UniProt P37288)
[33] = target: Casein kinase I isoform gamma-2 (Homo sapiens) (UniProt P78368); assay: Inhibition of CK1gamma2(h) at 10.0 µM in the Eurofins Kinase panel; details: Compound concentration 10.0 uM
[34] = target: Homeodomain-interacting protein kinase 2 (Homo sapiens) (UniProt Q9H2X6); assay: Inhibition of HIPK2(h) at 10.0 µM in the Eurofins Kinase panel; details: Compound concentration 10.0 uM
[35] = target: Aurora kinase A (Homo sapiens) (UniProt O14965); assay: Inhibition of Aurora-A(h) at 10.0 µM in the Eurofins Kinase panel; details: Compound concentration 10.0 uM
[36] = target: Dual specificity protein kinase CLK2 (Homo sapiens) (UniProt P49760); assay: Inhibition of CLK2(h) at 10.0 µM in the Eurofins Kinase panel; details: Compound concentration 10.0 uM

Mitogen-activated protein kinase kinase kinase 21 (Homo sapiens), sequence (Q5TCX8 whole entry): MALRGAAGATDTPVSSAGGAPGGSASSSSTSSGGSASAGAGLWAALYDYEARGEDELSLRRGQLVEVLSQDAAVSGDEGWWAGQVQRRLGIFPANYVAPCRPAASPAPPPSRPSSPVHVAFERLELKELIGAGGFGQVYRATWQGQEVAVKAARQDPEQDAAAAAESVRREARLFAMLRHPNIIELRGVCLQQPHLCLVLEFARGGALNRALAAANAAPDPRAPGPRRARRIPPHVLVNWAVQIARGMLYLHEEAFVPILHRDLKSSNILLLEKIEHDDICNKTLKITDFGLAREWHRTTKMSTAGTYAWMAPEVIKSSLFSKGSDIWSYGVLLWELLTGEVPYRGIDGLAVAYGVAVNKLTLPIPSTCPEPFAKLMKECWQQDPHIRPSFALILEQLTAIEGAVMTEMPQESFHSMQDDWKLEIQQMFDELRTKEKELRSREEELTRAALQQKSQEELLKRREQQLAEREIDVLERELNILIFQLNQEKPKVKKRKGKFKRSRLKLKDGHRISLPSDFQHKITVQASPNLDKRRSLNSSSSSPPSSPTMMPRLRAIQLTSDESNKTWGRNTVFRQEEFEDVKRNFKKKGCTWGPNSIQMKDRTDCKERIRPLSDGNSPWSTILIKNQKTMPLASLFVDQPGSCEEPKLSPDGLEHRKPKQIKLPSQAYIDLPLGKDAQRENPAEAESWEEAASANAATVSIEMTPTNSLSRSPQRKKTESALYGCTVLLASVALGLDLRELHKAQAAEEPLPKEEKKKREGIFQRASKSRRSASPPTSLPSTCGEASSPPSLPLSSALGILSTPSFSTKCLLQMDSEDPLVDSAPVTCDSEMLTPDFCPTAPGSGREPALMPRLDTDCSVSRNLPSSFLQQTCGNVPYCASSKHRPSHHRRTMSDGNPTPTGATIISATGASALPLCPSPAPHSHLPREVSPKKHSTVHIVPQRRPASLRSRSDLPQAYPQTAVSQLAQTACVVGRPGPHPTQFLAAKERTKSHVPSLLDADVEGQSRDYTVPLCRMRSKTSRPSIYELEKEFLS

Structure (SMILES)	inhibition [1] [%]	inhibition [2] [%]	inhibition [3] [%]	inhibition [4] [%]	inhibition [5] [%]	inhibition [6] [%]	inhibition [7] [%]	inhibition [8] [%]	inhibition [9] [%]	inhibition [10] [%]	inhibition [11] [%]	inhibition [12] [%]	inhibition [13] [%]	inhibition [14] [%]	inhibition [15] [%]	inhibition [16] [%]	inhibition [17] [%]	inhibition [18] [%]	inhibition [19] [%]	inhibition [20] [%]	further results
O=c1n(Cc2cncn2-c2cccc(Cl)c2)nc(-c2ccc(Cl)cc2)n1C[C@H](O)C(F)(F)F	8.45	2.85	7.5	-3	4.9	1.49	1.06	-2.02	-3.79	-4.61	-3.8	-6.06	2.02	0.33	12	6.76	2.56	-6.31	1.8	-4.95	inhibition [21]: -8.58%; inhibition [22]: -5.66%; inhibition [23]: -2.39%; inhibition [24]: -5.2%; inhibition [25]: 1.99%; inhibition [26]: -8.53%; inhibition [27]: -1.29%; inhibition [28]: -2.42%; inhibition [29]: -10%; inhibition [30]: -8.9%; inhibition [31]: -4.56%; inhibition [32]: -8.48%; inhibition (Vasopressin V1a receptor; Compound concentration 10.0 uM): 28%; inhibition [33]: -1.25%; inhibition [34]: -9.36%; inhibition [35]: 12.7%; inhibition [36]: -2.19%
C[C@H](O)c1nc(Cn2nc(-c3ccc(Cl)cc3)n(C[C@H](O)C(F)(F)F)c2=O)nn1-c1cccc(Cl)c1 [PECAVAPTAN]	6.1	-7.44	2.27	4	3.06	-5.08	2.11	0.62	-7.04	-9.11	-3.83	-7.5	-0.68	10.4	30	0.27	2.7	-2.21	5.09	-2.43	inhibition [21]: -0.27%; inhibition [22]: -1.83%; inhibition [23]: -3.57%; inhibition [24]: -2%; inhibition [25]: 3.11%; inhibition [26]: -9.34%; inhibition [27]: 3.56%; inhibition [28]: -1.96%; inhibition [29]: 1%; inhibition [30]: -0.76%; inhibition [31]: 0.7%; inhibition [32]: -5.4%; inhibition (Vasopressin V1a receptor; Compound concentration 0.01 uM): 65%; inhibition [33]: 4.6%; inhibition [34]: -6.27%; inhibition [35]: 11.2%; inhibition [36]: -2.64%
